For data set [1], the system named is human CD34-positive endothelial progenitor cells (EPC). Kind of data set: Pro-angiogenic test: EPC cell growth. Format: cell-based. Particulars: mean±SEM. The protocol:
(§1) Endothelial cell culture: Isolation and culture of human CD34-positive endothelial progenitor cells (EPC) were performed using conventional methods (Chen et al., 2018); human umbilical vein endothelial cells (HUVECs) were purchased from Promo Cell (Heidelberg, Germany); and EPCs and HUVECs were maintained in MV2 medium according to a known protocol (Chung et al., 2013).
(§2) Measurement of cell growth: EPCs and HUVECs were cultured overnight at a density of 5×10^3 cells per well in a 96-well plate, and then, in the presence of the test specimen (that is, maca extract), the original medium was replaced with MV2 minimal medium and incubated for 48 hours. The measurements on EPC cell growth were as described in Yang et al., 2019.
(§3) The results are shown in Table 1 as below, in which corresponding results are indicated as mean±SEM (the test was repeated 3 times as a whole), wherein, compared to the control group (DSMO), * denotes p<0.05, ** denotes p<0.01, *** denotes p<0.001; and - denotes being untested.

Data set [2] concerns RBL-2H3 cells. Kind of data set: Anti-allergy test: A23187-induced β-hexosaminidase release. Format: cell-based. How it is done:
(§4) Equivalently divided supernatants (50 μL) of control wells and experimental wells were incubated with an equal volume (50 μL) of […] p-NAG prepared in 0.1 M citrate buffer (pH 4.5), in which the buffer is formed as a matrix of released β-hexosaminidase; the reaction, after 1 hour incubation at 37° C., was stopped by adding 100 μL of termination buffer (0.1M Na2/NaHCO3, pH 10.0), and then, the absorbance at a wavelength of 405 nm was measured with a microplate reader. The percentage of inhibiting RBL-2H3 cells from releasing β-hexosaminidase was calculated as the percentage of control (untreated stimulated cells), and azelastine (20 μM) was used as a positive control. The test results are shown in Tables 4 to 6 below, and the corresponding results are indicated as mean±SEM (the test was repeated 3 times), wherein * denotes p<0.05, ** denotes p<0.01, *** denotes p<0.001; - denotes being untested; and N/A denotes that the specimen forms mycelium added to the medium, and accordingly, the results cannot be proven.

Data set [3] deals with human neutrophil. Kind of data set: Anti-neutrophil inflammation test: superoxide anion generation. The data set is classed as cell-based. Particulars: isolated compounds (10 μM) and positive controls 10 μM, fMLF/CB-activated neutrophils, mean±SEM. How it is done: (§5) Isolation of human neutrophil: According to the standard scheme of […] sedimentation, neutrophils was obtained from peripheral blood, and then, the neutrophils were purified by centrifugation and erythrocyte hypotonic degradation in a Ficoll-Hypaque gradient; and then, it was confirmed by the trypan blue exclusion test that the purified neutrophils contained more than 98% live cells, and the purified neutrophils were suspended in HBSS without calcium at 4° C. (Yang et al., 2013) prior to the test.
The level of superoxide anion generation by neutrophil activation was measured and determined based on the ferrocytochrome c reduction method according to Yang et al., 2013. In other words, human neutrophil cells (6×10^5 cells/mL) were mixed with 0.6 mg/mL of ferrocytochrome c and 1 mmol/L of CaCl at 37° C., and then the cells were treated with the test specimens having different concentrations (that is, maca extract) or DMSO (0.1% as control) for 5 minutes; thereafter, 10 minutes before activation with 100 nM of fMLF, the cells were incubated with cytochalasin B (1 μg/mL) for 3 minutes, changes in absorbance according to the decrease in ferrocytochrome c at a wavelength of […] with continuous stirring were continuously monitored using a spectrophotometer, and reactions were calculated with and without superoxide dismutase (SOD, 100 U/mL) with dividing by the extinction coefficient of the decreased ferrocytochrome c (21.1 mM^−1 cm^−1) reduction, thereby obtaining the difference value.

In data set [4] the test system is RBL-2H3 cells. Description: Anti-allergy test: antigen-induced β-hexosaminidase release. Format: cell-based. How it is done:
as §4

The subject of data set [5] is RBL-2H3 cells.
Protocol: Cells were cultured using DMEM medium supplemented with 10% FBS, and additional 100 U/mL penicillin and 100 μg/mL streptomycin. The cells were cultured in 10 cm Petri dishes in a 5% CO2 incubator at 37° C., the cells were secondary cultured in 80% confluent trypsin, and then seeded on culture plates at a density of 2×10^5 cells/mL for secretion measurement.
Measurement on cell viability: RBL-2H3 cells were seeded in a 96-well plate at a concentration of 2×10^4 cells/well overnight, specimens having different concentrations (that is, maca extract, dissolved in DMSO) or untreated controls (1% DMSO in Tyrode buffer; 135 mM NaCl, 5 mM KCl, 1.8 mM CaCl, 1.0 mM MgCl2, 5.6 mM glucose, 20 mM HEPES and 1 mg/ml BSA, pH 7.4) were used to treat the cells, the media was removed from the wells after incubation at 37° C., 5% CO2, and an MTT solution (5 mg/mL) stock solution was diluted 1:10 in the medium and then added to the wells (100 μL per well); Thereafter, the cells were incubated at 37° C., 5% CO2 for 1 hours, the medium was removed, the formed Formazan crystals (which can be formed only in normal healthy cells) were dissolved in 100 μL DMSO, and the absorbance at 574 nm wavelength was measured using a microplate reader in which the plates were gently shaked before the measurement. Cell viability values for the specimens were calculated and indicated as a percentage (%) of the control groups (untreated cells).
Data set [6] relates to human neutrophil. Description: Anti-neutrophil inflammation test: elastase release. Format: cell-based. Particulars: isolated compounds (10 μM) and positive controls 10 μM, fMLF/CB-activated neutrophils, mean±SEM. The protocol:
as §5
The elastase release was used to measure degranulation of azurophilic granules in activated neutrophils (Yang et al., 2013); and the measurement was performed using methoxysuccinyl-Ala-Ala-Pro-Val-p-nitroaniline as an elastase matrix. At 37° C., neutrophils (6×10^5 cells/mL) were added to a mixture of matrix (100 μmol/L) and CaCl2 (1 mmol/L), and treated with the test specimens having different concentrations (that is, maca extract) or DMSO (0.1% as control) for 5 minutes, and then the cells were stimulated by using fMLF (100 nM)/CB (0.5 μg/mL), and changes in absorbance at the 405 nm wavelength were continuously monitored to measure the release of elastase, in which genistein and LY294002 were used as positive controls. The corresponding results are indicated as mean±SEM (the test was repeated 3 or 4 times), in which * denotes p<0.05, ** denotes p<0.01, *** denotes p<0.001; and - denotes being untested.

For data set [7], the system named is human umbilical vein endothelial cells (HUVECs). Description: Pro-angiogenic test: HUVEC cell growth. Format: cell-based. Particulars: VEGF 20 ng/mL, positive control, mean±SEM. The protocol:
as §1, §2, §3

Marks after values point to notes of the source that are not given here.

As to `O=Cc1cc[n+]([O-])cc1Cc1ccccc1` [Compound 7, 3-(benzyl)-1-(hydroxy)-4-aldehyde pyridine], the “Cell growth rate (%) EPC” value in data set [1] (50 μM of each isolated compound, 48 hours) is recorded as 105 ± 3%. The “Percentage of inhibiting A23187-induced β-hexosaminidase release (%) 10 μM/mL” value in data set [2] (10 μM/mL) is recorded as 2.0 ± 1.6%. For the same molecule, the “Percentage of inhibiting A23187-induced β-hexosaminidase release (%) 100 μM/mL” value in data set [2] (100 μM/mL) is recorded as 6.0 ± 0.8%. The “Percentage of inhibiting A23187-induced β-hexosaminidase release (%) 500 μM/mL” value in data set [2] (500 μM/mL) was 18.0 ± 3.4%***. In addition, in data set [2] (Table 4, isolated compounds, concentration not given (values equal 100 μM column of Table 6)), the “A23187-induced β-hexosaminidase release Inhibition rate (%)” value stood at 6.0 ± 0.8%. Besides, the “Inhibition rate (%) Superoxide anion generation” value in data set [3] amounted to 10.94 ± 1.84 %. Moreover, in data set [4] (10 μM/mL), the “Percentage of inhibiting antigen-induced β-hexosaminidase release (%) 10 μM/mL” value turned out to be 11.7 ± 2.6%. Besides, in data set [4] (100 μM/mL), the “Percentage of inhibiting antigen-induced β-hexosaminidase release (%) 100 μM/mL” value is 8.0 ± 1.2%. For the same molecule, in data set [4] (500 μM/mL), the “Percentage of inhibiting antigen-induced β-hexosaminidase release (%) 500 μM/mL” value was 0.0 ± 0.0%. Further, the “Antigen-induced β-hexosaminidase release Inhibition rate (%)” value in data set [4] (Table 4, isolated compounds, concentration not given) is recorded as 8.0 ± 1.2%. In data set [5], the “Viability of RBL-2H3 cells at 200 μg/ml” value is 94.7%. Further, in data set [6], the “Inhibition rate (%) Elastase release” value is listed as 2.48 ± 3.05%.

VEGF: the “Cell growth rate (%) EPC” value in data set [1] (VEGF 20 ng/mL, positive control) is reported as 128 ± 2*** %. Further, the “Cell growth rate (%) HUVEC” value in data set [7] is on record as 122 ± 2*** %.
